From patent US20250332173A1, “COMPOUNDS AND METHODS FOR MODULATING NUCLEIC ACID SPLICING” (REMIX THERAPEUTICS INC., priority 2021, published 2025) come the findings set out here.

The subject of one experiment is SMN2 mRNA. Nature of the experiment: RT-qPCR splicing assay, SMN2 canonical junction (CJ) mRNA. Format: cell-based, human. The conditions noted are these: Homo sapiens; canonical junction qPCR panel, Table 5; read-out: SMN2 (decrease in CJ mRNA levels, IC50). The essentials: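 Canonical exon-exon junction transcript levels measured by one-step RT-qPCR of cell lysates, normalized to a housekeeping gene (GAPDH, GUSB or PPIA). Cells used were A673 or K562, exposed for 24 h to compound in 11-point, 3-fold series from 10 uM, with final DMSO at or below 0.25%.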

The test system of experiment [1] is K562 (human chronic myelogenous leukemia) cells. Nature of the experiment: Cell Titer Glo 2.0 cell viability assay. Format: cell-based. The conditions noted are these: Homo sapiens, K562, 72 h, K562 cells, 72 hours, Cell Titer Glo 2.0; read-out: K562 GI50.
The subject of the next experiment is HTT. Nature of the experiment: HiBiT protein abundance assay, HTT HiBiT K562 cell line. The format is cell-based, human. Particulars: HiBiT K562 cell line, 24 hours, top dose 10 μM; read-out: Effect on protein abundance, HTT (IC50 category). A digest of the protocol: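 K562 knock-in lines with endogenous HiBiT-tagged target, 10,000 cells/well in IMDM + FBS, treated 24 h at 37° C with 10-point 3-fold dilutions (top 10 μM final; DMSO ≤0.25%). Lytic Nano-Glo HiBiT luminescence normalized to untagged K562 baseline and DMSO controls; IC50 = concentration giving 50% abundance via four-parameter fit.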
For orientation: The HiBiT peptide binds its large partner to form an active luciferase.

As a reminder, the IC50 is the concentration that gives 50% inhibition. As usually defined, the GI50 is the concentration that inhibits growth by half. As for `Cn1cc2cc(-c3ccc4c(=O)n(C5CCNCC5)ccc4n3)cc(F)c2n1` [Compound 1231], the values for the IC50 in the experiment with SMN2 mRNA and with HTT were less than 100 nM and 100 to 1000 nM, respectively. For the same molecule, in experiment [1], the GI50 is 100 to 1000 nM.
For `Cc1cn2cc(-c3ccc4c(=O)n(C5CCNCC5)ccc4n3)nc(C)c2n1` [Compound 1238, 2-(2,8-dimethylimidazo[1,2-a]pyrazin-6-yl)-6-(piperidin-4-yl)-1,6-naphthyridin-5(6H)-one], the values for the IC50 in the experiment on SMN2 mRNA and in the experiment on HTT were 1000 to 10000 nM and more than 10000 nM, respectively. For the same molecule, the GI50 in experiment [1] was more than 10000 nM.
On to `Cc1cn2cc(-c3ccc4c(=O)n(C5CCNCC5)ccc4n3)c(O)cc2n1` [Compound 1240], for which the IC50 is 100 to 1000 nM in the experiment with SMN2 mRNA and more than 10000 nM in the experiment with HTT. Also, the GI50 in experiment [1] lay within 1000 to 10000 nM.
For `Cc1cn2cc(-c3ccc4c(=O)n(C5CCNCC5)ccc4n3)cc(C)c2n1` [Compound 1241, 2-(2,8-dimethylimidazo[1,2-a]pyridin-6-yl)-6-(piperidin-4-yl)-1,6-naphthyridin-5(6H)-one] the same measures were less than 100 nM, less than 100 nM and less than 100 nM.
For `Cn1cc2cc(-c3ccc4c(=O)n(C5CCNC6(CC6)C5)ccc4n3)c(O)cc2n1` (stereo not drawn) [Compound 1242] the same measures were less than 100 nM, less than 100 nM and less than 100 nM.
On the same counts, the results for `COc1c(-c2ccc3c(=O)n(C4CCNCC4)ccc3n2)cc2cn(C)nc2c1C` [Compound 1243] are more than 10000 nM, more than 10000 nM and more than 10000 nM.
As to `Cn1cc2cc(-c3ccc4c(=O)n([C@@H]5CCNC6(CC6)C5)ccc4n3)c(O)cc2n1` [Compound 1246], the IC50 in the experiment with SMN2 mRNA was less than 100 nM; in the experiment on HTT, 100 to 1000 nM. Also, the GI50 in experiment [1] fell in the range of 100 to 1000 nM.
Turning to `Cc1c(O)c(-c2ccc3c(=O)n(C4CCNCC4)cc(C)c3n2)cc2cn(C)nc12` [Compound 1284], the IC50 in the experiment on SMN2 mRNA and in the experiment with HTT was less than 100 nM in each case. Also, in experiment [1], the GI50 was less than 100 nM.
As to `Cc1cn(C2CCNCC2)c(=O)c2ccc(-c3cc4cn(C)nc4c(F)c3O)nc12` [Compound 1285], the IC50 with SMN2 mRNA and in the experiment with HTT was less than 100 nM throughout. For the same molecule, the GI50 in experiment [1] was less than 100 nM.
For the molecule `Cn1cc2nc(-c3ccc4c(=O)n(C5CCNCC5)ccc4n3)c(O)cc2n1` [Compound 1296], the IC50 with SMN2 mRNA and with HTT was less than 100 nM each time. Moreover, in experiment [1], the GI50 lay within 100 to 1000 nM.
Turning to `Cc1cn2cc(-c3ccc4c(=O)n(C5CCNCC5)ccc4n3)cc(C#N)c2n1` [Compound 1297], the IC50 is less than 100 nM in the experiment on SMN2 mRNA and 100 to 1000 nM with HTT. Besides, the GI50 in experiment [1] lay within 100 to 1000 nM.
Take `Cc1cn2cc(-c3ccc4c(=O)n(C5CCNC5)ccc4n3)cc(F)c2n1` (stereo not drawn) [Compound 1299]: the IC50 is 100 to 1000 nM in the experiment on SMN2 mRNA and more than 10000 nM in the experiment on HTT. In experiment [1], the GI50 fell in the range of 1000 to 10000 nM.
For `Cc1c(O)c(-c2ncc3c(=O)n(C4CCC(N)CC4)ccc3n2)cc2cn(C)nc12` (stereo not drawn) [Compound 1300, 6-((1s,4s)-4-aminocyclohexyl)-2-(6-hydroxy-2,7-dimethyl-2H-indazol-5-yl)pyrido[4,3-d]pyrimidin-5(6H)-one] the same measures were less than 100 nM, 100 to 1000 nM and 100 to 1000 nM.
On the same counts, the results for `Cc1cn2cc(-c3ncc4c(=O)n(C5CCNCC5)ccc4n3)cc(C#N)c2n1` [Compound 1301] are less than 100 nM, 100 to 1000 nM and 100 to 1000 nM.
On to `Cc1cn2cc(-c3ccc4c(=O)n(C5CCNC5)ccc4n3)c(O)c(C)c2n1` (stereo not drawn) [Compound 1302], for which the IC50 was 1000 to 10000 nM in the experiment on SMN2 mRNA and more than 10000 nM with HTT. Moreover, in experiment [1], the GI50 was more than 10000 nM.
Regarding `Cc1c(O)c(-c2ncc3c(=O)n(N4CCNCC4)ccc3n2)cc2cn(C)nc12` [Compound 1303], the results for the IC50 in the experiment with SMN2 mRNA and with HTT were less than 100 nM and 100 to 1000 nM, respectively. Also, in experiment [1], the GI50 lay within 100 to 1000 nM.
With `Cc1c(O)c(-c2ncc3c(=O)n(C4CCN(C)CC4)ccc3n2)cc2cn(C)nc12` [Compound 1304], the figures for the IC50 in the experiment on SMN2 mRNA and with HTT were less than 100 nM and 100 to 1000 nM, respectively. For the same molecule, the GI50 in experiment [1] lay within 100 to 1000 nM.
On to `Cc1c(O)c(-c2ncc3c(=O)n(C4CNC4)ccc3n2)cc2cn(C)nc12` [Compound 1305, 6-(azetidin-3-yl)-2-(6-hydroxy-2,7-dimethyl-indazol-5-yl)pyrido[4,3-d]pyrimidin-5-one], for which the IC50 with SMN2 mRNA is less than 100 nM; in the experiment with HTT, more than 10000 nM. Further, the GI50 in experiment [1] fell in the range of 1000 to 10000 nM.
`Cc1c(O)c(-c2ncc3c(=O)n(C45CCC(N)(CC4)C5)ccc3n2)cc2cn(C)nc12` [Compound 1428]: the IC50 is less than 100 nM in the experiment with SMN2 mRNA and 1000 to 10000 nM with HTT. Besides, the GI50 in experiment [1] is less than 100 nM.
As for `Cc1c(O)c(-c2ncc3c(=O)n([C@@H]4C[C@H]5CC[C@@H](C4)N5)ccc3n2)cc2cn(C)nc12` [Compound 1429, 6-[(1S,5R)-8-azabicyclo[3.2.1]octan-3-yl]-2-(6-hydroxy-2,7-dimethyl-indazol-5-yl)pyrido[4,3-d]pyrimidin-5-one], the values for the IC50 in the experiment on SMN2 mRNA and in the experiment on HTT were less than 100 nM and 100 to 1000 nM, respectively. For the same molecule, in experiment [1], the GI50 lay within 100 to 1000 nM.
Consider `Cc1c(O)c(-c2ncc3c(=O)n([C@H]4C[C@@H](N)C4)ccc3n2)cc2cn(C)nc12` [Compound 1431, 6-((1s,3s)-3-aminocyclobutyl)-2-(6-hydroxy-2,7-dimethyl-2H-indazol-5-yl)pyrido[4,3-d]pyrimidin-5(6H)-one], for which the IC50 in the experiment with SMN2 mRNA lay within 100 to 1000 nM; in the experiment with HTT, 1000 to 10000 nM. Besides, the GI50 in experiment [1] was 1000 to 10000 nM.
Turning to `Cc1c(O)c(-c2ncc3c(=O)n([C@H]4C[C@H](N)C4)ccc3n2)cc2cn(C)nc12` [Compound 1432, 6-((1r,3r)-3-aminocyclobutyl)-2-(6-hydroxy-2,7-dimethyl-2H-indazol-5-yl)pyrido[4,3-d]pyrimidin-5(6H)-one], the figures for the IC50 in the experiment on SMN2 mRNA and in the experiment on HTT were less than 100 nM and 1000 to 10000 nM, respectively. Further, the GI50 in experiment [1] was 100 to 1000 nM.
For the molecule `Cc1c(O)c(-c2ncc3c(=O)n([C@@H]4CCN[C@H](C)C4)ccc3n2)cc2cn(C)nc12` [Compound 1434, 2-(6-hydroxy-2,7-dimethyl-indazol-5-yl)-6-(2-methyl-4-piperidyl)pyrido[4,3-d]pyrimidin-5-one], the IC50 with SMN2 mRNA was less than 100 nM; in the experiment on HTT, 100 to 1000 nM. Moreover, in experiment [1], the 50% growth inhibitory concentration (GI50) was 100 to 1000 nM.
Take `Cc1c(O)c(-c2ncc3c(=O)n([C@H]4CCNC(C)(C)C4)ccc3n2)cc2cn(C)nc12` [Compound 1436]: the results for the IC50 in the experiment with SMN2 mRNA and in the experiment with HTT were less than 100 nM and 100 to 1000 nM, respectively. For the same molecule, the GI50 in experiment [1] is less than 100 nM.
For the molecule `Cc1cn2nc(-c3ccc4c(=O)n([C@H]5CCNC5)ccc4n3)cc(C)c2n1` [Compound 1437, 2-(2,8-dimethylimidazo[1,2-b]pyridazin-6-yl)-6-[(3S)-pyrrolidin-3-yl]-1,6-aphthyridin-5-one], the IC50 in the experiment on SMN2 mRNA is less than 100 nM; in the experiment with HTT, 1000 to 10000 nM. In addition, the GI50 in experiment [1] was 1000 to 10000 nM.
For the molecule `Cc1cn2nc(-c3ccc4c(=O)n([C@@H]5CCNC5)ccc4n3)cc(C)c2n1` [Compound 1438, 2-(2,8-dimethylimidazo[1,2-b]pyridazin-6-yl)-6-[(3R)-pyrrolidin-3-yl]-1,6-naphthyridin-5-one], the half-maximal inhibitory concentration (IC50) was less than 100 nM with SMN2 mRNA and 1000 to 10000 nM in the experiment on HTT. In experiment [1], the GI50 was in the range of 1000 to 10000 nM.
